Here are results for 12 compounds from patent US7527934B2, “Labeled substrate conjugates for identifying enzyme inhibitors” (priority 2004, dated 2009).

Read-outs that look alike come from different tables or passages of the source.

Series [1] addresses Clostridium perfringens neuraminidase. It is filed as biochemical. The settings on record: for IC50: pH 6.5, read-out: Solution phase IC50, Clostridium perfringens.
The target of series [2] is T1, Vibrio cholerae neuraminidase (Vibrio cholerae serotype O1, UniProt P0C6E9).
T1 construct: purchased Sigma
Put plainly: biochemical. The series is classed as biochemical.

Series [3] addresses T2, Salmonella typhimurium neuraminidase (Salmonella typhimurium, UniProt P29768).
T2 construct: purchased Sigma
In words: biochemical. The series is classed as biochemical.

Series [4] has as its target T2, Salmonella typhimurium neuraminidase. Conditions: value in brackets marked lit; read-out: Solution phase IC50, Salmonella typhimurium, literature value; cited from earlier work.
In series [5] the target is T3, α2,6-sialyltransferase (Rattus norvegicus, UniProt P13721).
T3 sequence (P13721 1-403): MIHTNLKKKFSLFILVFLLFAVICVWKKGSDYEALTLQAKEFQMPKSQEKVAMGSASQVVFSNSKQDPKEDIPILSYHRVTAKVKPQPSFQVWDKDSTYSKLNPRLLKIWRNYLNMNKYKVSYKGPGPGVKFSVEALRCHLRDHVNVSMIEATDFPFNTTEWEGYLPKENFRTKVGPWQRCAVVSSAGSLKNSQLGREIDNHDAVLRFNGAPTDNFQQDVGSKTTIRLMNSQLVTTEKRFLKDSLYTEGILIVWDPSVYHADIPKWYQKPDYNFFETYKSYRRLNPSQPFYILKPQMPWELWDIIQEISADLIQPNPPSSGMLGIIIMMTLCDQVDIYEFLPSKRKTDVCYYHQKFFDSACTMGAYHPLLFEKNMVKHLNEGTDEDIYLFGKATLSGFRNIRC
The settings on record: read-out: KM value; literature (Gross et al. 1989); cited from earlier work.

Series [6] addresses T3, α2,6-sialyltransferase. Put plainly: Sialyltransferase competitive assay. It is filed as biochemical. Set-up: purchased Calbiochem.
For series [7], the target named is T3, α2,6-sialyltransferase. Put plainly: Substrate recognition by sialyltransferase (FRET donor/acceptor). Conditions: acceptor 0.2 mM, donor 0.1 mM, sialyltransferase 0.2 mU, FIG. 15. More on the design: purchased Calbiochem. The series is classed as biochemical.
The subject of a further series is α2,3-sialyltransferase. Described as above. The series is classed as biochemical. The settings on record: acceptor 0.2 mM, donor 0.1 mM, sialyltransferase 0.2 mU, FIG. 15.

T1 sequence (P0C6E9 25-781 limits assumed): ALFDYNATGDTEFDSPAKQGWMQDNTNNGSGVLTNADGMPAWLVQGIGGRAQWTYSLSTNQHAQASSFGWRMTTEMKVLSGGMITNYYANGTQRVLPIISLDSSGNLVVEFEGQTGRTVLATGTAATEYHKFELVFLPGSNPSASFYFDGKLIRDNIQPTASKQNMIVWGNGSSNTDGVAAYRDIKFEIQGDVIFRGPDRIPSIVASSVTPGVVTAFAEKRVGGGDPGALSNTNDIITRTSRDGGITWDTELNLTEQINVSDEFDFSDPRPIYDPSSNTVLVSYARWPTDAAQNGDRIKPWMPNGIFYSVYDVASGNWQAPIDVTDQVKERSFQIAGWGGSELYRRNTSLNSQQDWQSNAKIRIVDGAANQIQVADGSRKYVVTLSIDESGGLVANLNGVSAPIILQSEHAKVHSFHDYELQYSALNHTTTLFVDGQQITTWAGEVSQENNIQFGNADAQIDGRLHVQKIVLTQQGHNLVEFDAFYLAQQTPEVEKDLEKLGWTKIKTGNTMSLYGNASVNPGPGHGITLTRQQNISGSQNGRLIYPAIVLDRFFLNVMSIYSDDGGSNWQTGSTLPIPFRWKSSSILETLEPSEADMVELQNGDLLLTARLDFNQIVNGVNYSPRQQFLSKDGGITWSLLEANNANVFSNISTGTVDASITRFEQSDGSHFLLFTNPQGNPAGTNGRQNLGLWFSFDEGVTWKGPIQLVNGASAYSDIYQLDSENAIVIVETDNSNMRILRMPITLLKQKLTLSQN
T2 sequence (P29768 whole entry): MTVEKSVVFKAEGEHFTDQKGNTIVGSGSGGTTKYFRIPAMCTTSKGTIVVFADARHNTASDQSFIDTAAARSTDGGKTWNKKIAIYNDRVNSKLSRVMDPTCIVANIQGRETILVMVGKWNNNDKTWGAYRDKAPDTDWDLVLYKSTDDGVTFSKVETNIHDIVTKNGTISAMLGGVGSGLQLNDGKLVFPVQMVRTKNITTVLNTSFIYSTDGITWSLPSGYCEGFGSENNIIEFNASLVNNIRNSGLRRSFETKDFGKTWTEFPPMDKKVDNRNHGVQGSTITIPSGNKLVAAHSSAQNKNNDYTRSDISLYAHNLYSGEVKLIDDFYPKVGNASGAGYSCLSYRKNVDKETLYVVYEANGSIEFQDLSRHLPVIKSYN

The IC50 is the concentration that gives 50% inhibition. For the compound `CC(=O)NC1C(O)CC(O)(C(=O)O)OC1[C@H](O)[C@H](O)CO` (stereo partly shown), the IC50 in series [1], in series [2] and in series [3] was > 2000 µM in each case.

`CC(=O)NC1C(N)C=C(C(=O)O)OC1[C@H](O)[C@H](O)CO` (stereo partly shown): the 50% inhibitory concentration (IC50) in series [1], in series [2] and in [3] was > 2000 µM each time.

Turning to `CC1=NC2C(O)C=C(C(=O)O)OC2C(CC(=O)N[C@@H](C(N)=O)C2CCCCC2)O1` (stereo partly shown), the IC50 in series [1] was 1600 µM; in [2], > 2000 µM; in series [3], > 2000 µM.

`CC(=O)NC1C(NC(=N)N)C=C(C(=O)O)OC1[C@H](OC(N)=O)[C@H](O)CO` (stereo partly shown): the IC50 is > 2000 µM in series [1], 250 µM in [2] and > 2000 µM in [3].

Consider `CC(=O)NC1C(O)C=C(C(=O)O)OC1[C@H](O)[C@H](O)CO` (stereo partly shown) [2-deoxy-2,3-dehydro-N-acetylneuraminic acid], for which, in [1], the “Inhibition of Clostridium perfringens neuraminidase” value was “good inhibitor” and the IC50 was found to be 4 µM. Also, in [2], the “Inhibition of Vibrio cholerae neuraminidase” value is on record as “good inhibitor”. Besides, in [3], the midpoint of inhibition, the IC50, lay at 310 µM and the “Inhibition of Salmonella typhimurium neuraminidase” value is given as “good inhibitor”. In series [4], the IC50 is 350 µM.

With `CC(=O)NC1C(NC(=N)N)C=C(C(=O)O)OC1[C@H](O)[C@H](O)CO` (stereo partly shown) [4-guanidino-2-deoxy-2,3-didehydro-N-acetylneuraminic acid], in series [2], half-maximal inhibition (IC50) was put at 200 µM and the “Inhibition of Vibrio cholerae neuraminidase” value is “inhibitor”. In addition, the IC50 in series [3] was > 2000 µM.

As a reminder, the Km is the substrate concentration at which the rate is half of its maximum. Turning to `CC(=O)NC1C(O)CC(OP(=O)(O)OC[C@H]2O[C@@H](n3ccc(N)nc3=O)[C@@H](O)C2O)(C(=O)O)OC1[C@H](O)[C@H](O)CO` (stereo partly shown) [CMP-Neu5Ac, cytidine monophosphate N-acetylneuraminic acid], the Km on α2,6-sialyltransferase [5] was 45 µM. On α2,6-sialyltransferase [6], the IC50 is 85 µM.

By melting point is commonly meant the temperature, or range, at which the solid turns liquid. In the case of `NC(=O)C(Cc1ccc(O)c([N+](=O)[O-])c1)NC(=O)Cc1cc(=O)oc2cc(O)ccc12` (stereo not shown) [Compound 41, 3-(4-Hydroxy-3-nitro-phenyl)-2-[2-(7-hydroxy-2-oxo-2H-chromen-4-yl)-acetylamino]-propionamide], the melting point was determined as 203 °C.

In turn, `NC(=O)C(Cc1ccc(O)c([N+](=O)[O-])c1)NC(=O)CCC(=O)NCCOCCOCCNC(=O)Cc1cc(=O)oc2cc(O)ccc12` (stereo not shown) [Compound 42, N-[1-Carbamoyl-2-(4-hydroxy-3-nitro-phenyl)-ethyl]-N′-[2-(2-{2-[2-(7-hydroxy-2-oxo-2H-chromen-4-yl)-acetylamino]-ethoxy}-ethoxy)-ethyl]-succinamide] showed a melting point of 115 °C.

Regarding `N[C@@H](Cc1ccc(O)c([N+](=O)[O-])c1)C(=O)NCCO[C@@H]1O[C@H](CO)[C@@H](O[C@@H]2O[C@H](CO)[C@H](O)[C@H](O)[C@H]2O)[C@H](O)[C@H]1O` [acceptor 64, 2-(3-Nitro-L-tyrosyl-amide)ethyl β-D-galactopyransyl-(1→4)-O-β-D-glucopyranoside], the “Substrate recognition by α2,6-sialyltransferase” value on α2,6-sialyltransferase [7] is “poor substrate recognition”. Moreover, the “Substrate recognition by α2,3-sialyltransferase” value in the series on α2,3-sialyltransferase is “poor substrate recognition”.

For the compound `CC(=O)N[C@H]1[C@H](OCCNC(=O)[C@@H](N)Cc2ccc(O)c([N+](=O)[O-])c2)O[C@H](CO)[C@@H](O[C@@H]2O[C@H](CO)[C@H](O)[C@H](O)[C@H]2O)[C@@H]1O` [acceptor 69, 2-(3-Nitro-L-tyrosyl-amide)ethyl β-D-galactopyransyl-(1→4)-O-2-acetamido-2-deoxy-β-D-glucopyranoside], the “Substrate recognition by α2,6-sialyltransferase” value at α2,6-sialyltransferase [7] was “good substrates”. Also, in the series on α2,3-sialyltransferase, the “Substrate recognition by α2,3-sialyltransferase” value was “good substrates”.

For “CMP-5-(7-hydroxy-4-coumarinyl-acetamido)-NeuAc [donor 55]”, the “Substrate recognition by α2,6-sialyltransferase” value at α2,6-sialyltransferase [7] is recorded as “good substrates”. Moreover, in the series with α2,3-sialyltransferase, the “Substrate recognition by α2,3-sialyltransferase” value is given as “good substrates”.
